{"source": "patent US20030083469A1", "about": "“Allosteric control of nuclear hormone receptors” (The Salk Institute for Biological Studies, priority 1995, published 2003)", "origin": "cited, not measured here", "key": {"[1]": {"system": "RAR", "conditions": "Allegretto et al., 1993, Allenby et al.; cited from earlier work"}, "[2]": {"system": "RXR", "conditions": "Allegretto et al., 1993, Allenby et al.; cited from earlier work"}}}
{"smiles": "CC1=C(/C=C/C(C)=C\\C=C\\C(C)=C\\C(=O)O)C(C)(C)CCC1", "note": "[9-cis RA, 9-cis retinoic acid]", "values": [{"measurement": "binding affinity", "setting": "[1]", "value": "high affinity"}, {"measurement": "binding affinity", "setting": "[2]", "value": "high affinity"}]}
